Laboratory results from patent US20110251379A1, “COMPOUNDS USEFUL FOR TREATING NEURODEGENERATIVE DISORDERS” (Satori Pharmaceuticals, Inc., priority 2010, published 2011).
Like-named read-outs stand apart in the source and are kept apart here.

Assays:
Assay type in all cases: cell-based
Aβ-38 = assay: MSD Human (6E10) Ab 3-PLEX elisa, conditioned media of 2B7 cells: Aβ-38; details: Homo sapiens; for IC50: Aβ-38 (superscript a)
Description: (§1) Assays were conducted to determine the ability of a Compound of Formula I to modulate […], and Aβ-38.
(§2) Plates with capture antibodies were blocked for 1-2 hours at room temperature with 150 μL of the manufactures blocking reagent.
(§3) Conditioned Media: • Cultured 2B7 cells in 96 well plate with 250 uL of media per well until confluent; • Prepared serial dilutions of compounds in DMSO at 100× the final desired concentration; • Washed wells with 2B7 cells 1× with 250 uL of media; • Diluted DMSO stocks 1:100 into media: • Added 250 μL of media containing compounds (1% DMSO) to wells with 2B7 cells for 5 hours at 37° C.
(§4) Elisa Sample Prep: • Diluted conditioned media: 1 part media with 1% DMSO and 1 part blocking buffer; • 150 μL of the 250 μL of conditioned media were used.
(§5) […] CURVE SAMPLE PREP: Prepared per manufacturer's protocol (see above) • Seven point standard curve samples were prepared that contained Aβ-42, Aβ-40, and Aβ-38. The highest concentration of Aβ-42 and Aβ-3-38 was 3,000 pg/mL and the highest concentration of Aβ-40 was 10,000 pg/mL. Subsequent serial dilutions were 1:3 and the final composition of each sample was 1 part blocking buffer and 1 part cell medium containing 1% DMSO.
(§6) Overnight Sample Incubation: • Blocked plates are washed 5× with MSD wash buffer with a plate washer • 25 uL of detection antibody and blocker G reagent in MSD blocking solution is added • 25 uL of samples (1 part conditioned media containing 1% DMSO and 1 part MSD blocking buffer) are then added. • plates are incubated overnight at 4 degrees C. or 2 hours at room temp
(§7) Final Wash and Readout: • Wash wells 5× with MSD wash buffer • Added 150 μL 2×MSD read buffer • Read with MSD imager.
(§8) A-Beta peptide levels for each peptide are calculated from the standard curve using the MSD software provided with the MSD 2400 Imager. Percent vehicle values for each compound dosage were then calculated and fit to a 4 parameter curve generating IC50 values.

Aβ-40 = assay: MSD Human (6E10) Ab 3-PLEX elisa, conditioned media of 2B7 cells: Aβ-40; details: for IC50 / inhibition at 20 µM: Homo sapiens; for inhibition at 20 µM: Aβ-40, 20 μM
Description: as §1, §2, §3, §4, §5, §6, §7, §8

Aβ-42 = assay: MSD Human (6E10) Ab 3-PLEX elisa, conditioned media of 2B7 cells: Aβ-42; details: for IC50 / inhibition at 20 µM: Homo sapiens; for inhibition at 20 µM: Aβ-42, 20 μM
Description: as §1, §2, §3, §4, §5, §6, §7, §8

[1] = Aβ-40 (superscript b), read-out: 50% reduction value
[2] = Aβ-42 (superscript c), read-out: 50% reduction value
[3] = Aβ-42 (superscript c), read-out: IC50 range
[4] = Aβ-40 (superscript b), read-out: IC50 range

SMILES	IC50 (Aβ-38; read-out: 50% reduction value) [nM]	IC50 (Aβ-38; read-out: IC50 range) [nM]	IC50 (Aβ-40; [1]) [µM]	IC50 (Aβ-42; [2]) [nM]	IC50 (Aβ-42; [3]) [nM]	IC50 (Aβ-40; [4]) [µM]	inhibition at 20 µM (Aβ-40) [%]	inhibition at 20 µM (Aβ-42) [%]	inhibition at 20 µM (Aβ-38; Aβ-38, 20 μM) [%]	50% reduction value (Aβ-40; Aβ-40 (superscript b))	50% reduction value (Aβ-42; Aβ-42 (superscript c))
CO[C@@H]([C@H]1C[C@@H](C)[C@H]2[C@H](O1)[C@H](O)[C@@]1(C)[C@@H]3CC[C@H]4C(C)(C)[C@@H](OC5CN(C(=O)C(C)C)CCO5)CC[C@@]45C[C@@]35CC[C@]21C)C(C)(C)O (some centres unmarked)	< 1000	< 1000	1 to 10	< 1000	< 1000	–	–	–	–	–	–
CNC(=O)O[C@H](C(C)C)C1C[C@@H](C)[C@H]2C(O1)[C@H](O)[C@@]1(C)C3CC[C@H]4C(C)(C)[C@@H](O[C@H]5CNCCO5)CC[C@@]45C[C@@]35CC[C@]21C (some centres unmarked)	< 1000	–	1 to 10	< 1000	< 1000	> 10	25 to 75	25 to 75	–	–	–
CC(C)[C@@H](OC(=O)N1CCC1)C1C[C@@H](C)[C@H]2C(O1)[C@H](O)[C@@]1(C)C3CC[C@H]4C(C)(C)C(OC(=O)N5CC(NCC(F)(F)F)C5)CC[C@@]45C[C@@]35CC[C@]21C (some centres unmarked)	1000 to 10000	–	> 10	< 1000	–	–	–	–	–	–	–
C[C@@H]1CC(CN(C)C(=O)N(C)C)OC2[C@H]1[C@@]1(C)CC[C@@]34C[C@@]35CC[C@H](O)C(C)(C)[C@@H]5CCC4[C@]1(C)[C@H]2O (some centres unmarked)	1000 to 10000	–	–	–	–	–	25 to 75	25 to 75	–	–	–
CC(=O)N1CCN(C(=O)OC2CC[C@]34C[C@]35CC[C@]3(C)[C@@H]6C(OC([C@H](OC(=O)N7CCC7)C(C)C)C[C@H]6C)[C@H](O)[C@@]3(C)C5CC[C@H]4C2(C)C)CC1 (some centres unmarked)	< 1000	< 1000	1 to 10	< 1000	< 1000	1 to 10	–	–	–	–	–
C[C@@H]1CC(CN(C)CC(=O)O)OC2[C@H]1[C@@]1(C)CC[C@@]34C[C@@]35CC[C@H](O[C@H]3CN(C(=O)CC6CC6)CCO3)C(C)(C)[C@@H]5CCC4[C@]1(C)[C@H]2O (some centres unmarked)	–	> 10000	–	–	> 10000	> 10	–	–	–	–	–
CC(C)CC(=O)N1CCOC(OC2CC[C@]34C[C@]35CC[C@]3(C)[C@@H]6C(OC([C@H](OC(=O)N7CCC7)C(C)C)C[C@H]6C)[C@H](O)[C@@]3(C)C5CC[C@H]4C2(C)C)C1 (some centres unmarked)	1000 to 10000	1000 to 10000	1 to 10	1000 to 10000	1000 to 10000	1 to 10	–	–	–	–	–
CC(C)C(=O)N1CCO[C@@H](O[C@H]2CC[C@]34C[C@]35CC[C@]3(C)[C@@H]6C(OC([C@H](O)C(C)C)C[C@H]6C)[C@H](O)[C@@]3(C)C5CC[C@H]4C2(C)C)C1 (some centres unmarked)	1000 to 10000	1000 to 10000	> 10	1000 to 10000	–	–	–	–	–	–	–
CC(C)CC(=O)O[C@@H](C1C[C@@H](C)[C@H]2C(O1)[C@H](O)[C@@]1(C)[C@@H]3CC[C@H]4C(C)(C)C(O)CC[C@@]45C[C@@]35CC[C@]21C)C(C)(C)O (some centres unmarked)	< 1000	< 1000	1 to 10	< 1000	–	–	–	–	–	–	–
CC(=O)O[C@@H]([C@H]1C[C@@H](C)C2C(O1)C(=O)[C@@]1(C)[C@@H]3CC[C@H]4C(C)(C)[C@@H](O[C@@H]5OC[C@@H](O)[C@H](O)[C@H]5O)CC[C@@]45C[C@@]35CC[C@]21C)C(C)(C)O (some centres unmarked) [drawing 1230]	1000 to 10000	1000 to 10000	1 to 10	> 10000	< 1000	–	–	–	–	–	–
C[C@@H]1CC(COC(=O)C2CCOCC2)OC2[C@H]1[C@@]1(C)CC[C@@]34C[C@@]35CC[C@H](O[C@H]3CN(C6COC6)CCO3)C(C)(C)[C@@H]5CCC4[C@]1(C)[C@H]2O (some centres unmarked)	–	–	–	–	–	–	25 to 75	25 to 75	25 to 75	–	–
CNC(=O)O[C@H](C(C)C)C1C[C@@H](C)[C@H]2C(O1)[C@H](O)[C@@]1(C)C3CC[C@H]4C(C)(C)[C@@H](O)CC[C@@]45C[C@@]35CC[C@]21C (some centres unmarked)	1000 to 10000	< 1000	–	–	–	–	–	–	–	H/I	G/H
CCNC(=O)O[C@H](C(C)C)C1C[C@@H](C)[C@H]2C(O1)[C@H](O)[C@@]1(C)C3CC[C@H]4C(C)(C)C(OC(=O)NC5CNC5)CC[C@@]45C[C@@]35CC[C@]21C (some centres unmarked)	< 1000	< 1000	1 to 10	< 1000	< 1000	> 10	–	–	–	–	–
